Measurements taken from patent publication US20060148832A1, “Use of 2-amino-2h-quinazoline derivatives for producing therapeutic agents” (priority 2003, published 2006).

How the values were obtained:
blood platelets = conditions: mentioned in U.S. Pat. No. 4,146,718; cited from earlier work
[1] = Cyclization of the anagrelide prodrug to anagrelide in aqueous medium as a function of pH; format: physicochemical; conditions: 37° C., after one hour
Description: The 2-amino-2H-quinazoline derivatives according to the invention can be cyclized to the anagrelide in aqueous medium as a function of the pH without addition of other adjuvants or boiling under reflux for hours. […] A cyclization of the compound with the general chemical formula I in strongly acidic pH range, as prevails, for example, in the stomach of mammals, has only been detected up to a certain small percentage.
(§1) For the cyclization, 0.3 mmol of the anagrelide prodrug methyl-(2-amino-5,6-dichloro-2H-quinazolin-3-yl) acetate hydrochloride (analysis: UV-Maxima 217,262 nm; MW 324.59; mp>250° C.), corresponding to the general formula I, wherein R1 indicates an alkyl group with one carbon atom, R2 and R3 each indicate a hydrogen atom, and R4 and R5 each indicate a chlorine atom, was added to 10 ml of an aqueous hydrochloric acid solution (0.1 M HCl), at 37° C. with slight stirring. After one hour, 9.6% of the prodrug was converted to anagrelide. [drawing 2]
as §1, with “(MW 324.59)” for “(analysis: UV-Maxima 217,262 nm; MW 324.59; mp>250° C.),”, “pH-neutral water,” for “an aqueous hydrochloric acid solution (0.1 M HCl),”, “58%” for “9.6%”, “anagrelide.” for “anagrelide. [drawing 2]”
as §1, with “hydrochloride” for “hydrochloride (analysis: UV-Maxima 217,262 nm; MW 324.59; mp>250° C.),”, “basic” for “hydrochloric acid”, “NaOH),” for “HCl),”, “100%” for “9.6%”, “anagrelide.” for “anagrelide. [drawing 2]”
(§2) For the cyclization, 0.3 mmol of the anagrelide prodrug ethyl-(2-amino-5,6-dichloro-2H-quinazolin-3-yl) acetate hydrochloride hemihydrate, corresponding to the general formula I, wherein R1 indicates an alkyl group with two carbon atoms, R2 and R3 each indicate a hydrogen atom, and R4 and R5 each indicate a chlorine atom, was added to 10 ml of an aqueous basic solution (15 g of sodium hydrogen carbonate in 1 liter of water), at 37° C. with slight stirring. This basic solution was selected because it corresponds to a common test system for simulation of the milieu of the intestinal juice (pH between 8 and 10). After one hour, 100% of the prodrug was converted to anagrelide.
as §2, with “methyl-(2-amino-5,6-dichloro-2H-quinazolin-3-yl)” for “ethyl-(2-amino-5,6-dichloro-2H-quinazolin-3-yl)”, “one” for “two”, “atom,” for “atoms,”
as §2, with “hydrobromide (analysis: UV maxima 204, 216, 262 nm; mp 291-293,” for “hydrochloride hemihydrate,”

[2] = anagrelide base; cited from earlier work
thrombocytes = conditions: dose of 3 mg/day, after one week; cited from earlier work
[3] = 0.3 mmol in 10 ml aqueous basic solution (15 g sodium hydrogen carbonate in 1 liter water; simulated intestinal juice, pH between 8 and 10)

## Br.CCOC(=O)CN1Cc2c(ccc(Cl)c2Cl)N=C1N [Ethyl-(2-amino-5,6-dichloro-2H-quinazolin-3-yl) acetate hydrobromide]
Blood platelets
  effect on blood platelets: anti-aggregative effect on blood platelets
[1]; [3]
  prodrug converted to anagrelide: 100%

## COC(=O)CN1C=c2c(Cl)c(Cl)ccc2=NC1N.Cl (stereo not drawn) [Methyl-(2-amino-5,6-dichloro-2H-quinazolin-3-yl) acetate hydrochloride]
[1]; 0.3 mmol in 10 ml aqueous basic solution (0.1 M NaOH)
  prodrug converted to anagrelide: 100%
[1]; 0.3 mmol in 10 ml aqueous hydrochloric acid solution (0.1 M HCl)
  prodrug converted to anagrelide: 9.6%
[1]; 0.3 mmol in 10 ml pH-neutral water
  prodrug converted to anagrelide: 58%

## O=C1CN2Cc3c(ccc(Cl)c3Cl)N=C2N1 [anagrelide, 6,7-dichloro-1,5-dihydroimidazo-[2,1-b]-quinazolin-2-[3H]-one]
[2]
  solubility in water: difficultly soluble in water
thrombocytes
  decrease in thrombocytes: approximately 50%

## Ethyl-(2-amino-5,6-dichloro-2H-quinazolin-3-yl) acetate hydrochloride hemihydrate
[1]; [3]
  prodrug converted to anagrelide: 100%

## Methyl-(2-amino-5,6-dichloro-2H-quinazolin-3-yl) acetate hydrochloride hemihydrate
[1]; [3]
  prodrug converted to anagrelide: 100%
